Measurements from patent publication US8679766B2, “E-cadherin as a biomarker of gastroesophageal reflux disease” (The University of North Carolina at Chapel Hill, priority 2009, dated 2014).
Entries after “also recorded” stand apart in the source; their conditions may differ. Where two headings read alike, the source gives them in different places.

Tests used:
[1] = test system: rabbit EE; conditions: cited from earlier work
[2] = test system: rabbit EE; test: Ca++-switch technique: junctional opening and resealing (RT) in EE; format: cell-based
Excerpt: Below the TJ is the adherens junction (AJ), a structure that encircles the cell and initiates and stabilizes cell-cell adhesion, and by doing so, the AJ supports the barrier function of the TJ (36, 37). The single-pass, transmembrane protein of the AJ is the Ca^++-dependent E-cadherin (E-cad) and this connects directly to a group of catenins (α-catenin, β-catenin, p120-catenin), which in turn connect E-cad to the cytoskeleton via α-catenin's interaction with actin microfilaments, to the microtubules via p120-catenin's interaction with PLEKHA7/nezha and tubulins (38, 39), and to the TJ via p120-catenin's binding to ZO-136. Cell-cell adhesion by E-cad results from the Ca^++-dependent, homotypic, association between the extracellular domains of neighboring cells. Indeed, the Ca^++ sensitivity is so characteristic that it forms the basis of the ‘Ca^++-switch technique’ where Ca^++ removal from both bathing solutions results in junctional opening (decline in RT) and its restoration results in ‘resealing’ (recovery of RT) (40). This method was used to define the role of E-cad in junctional adhesion in EE (41). Removing Ca^++ lowered RT by about 35% over 2 hrs while restoration returned RT to baseline (41). […] Further, resealing was also shown to be dependent on E-cad because it was inhibited by antibodies (HECD-1, DECMA-1) or small synthetic peptides to its extracellular (N-terminal) domain of E-cad, but not by […] antibodies (4A2C7) to its intracellular (C-terminal) domain (41).
E-cadherin is a component of the adherens junction, a structure known to be important in junctional barrier function in most epithelia, including that of the esophagus (36, 41, 121). It is a single-span, transmembrane protein whose carboxy (C)-terminus resides in the cytoplasm and whose amino (N)-terminus resides in the intercellular space. The N-terminus of E-cadherin molecules from membranes of adjacent cells form a barrier by calcium-dependent binding to each other within the intercellular space. Since the protein bridges of E-cadherin both encircle the cell membrane and support the adhesion of the bridging proteins (occludin and claudins) forming the tight junction, they play an integral role in establishing junctional (electrical) resistance and controlling junctional permeability. This role for E-cadherin in (rabbit) EE has recently been shown in the Ussing chamber using the calcium-switch technique (41).

[3] = test system: rabbit EE; test: Barrier breaker search: rabbit EE in U-chambers, monitoring RT (marker of PCP) and Isc; format: cell-based
Excerpt: Agents that increase paracellular permeability (PCP) in EE are potential contributors to GERD by enabling diffusion of luminal acid into the intercellular space. Therefore, substances were sought within the refluxate, meals and inflammation that could ‘break the barrier’. This was done by exposing rabbit EE in U-chambers to candidate inflammatory agents while both monitoring RT, as a marker of PCP, and Isc (short circuit current), as a marker of active transport. The inflammatory agents were selected based on presence in EE or on reports that they can break the barrier in other epithelia (47-60).

[4] = test system: cleavage of E-cad in rabbit EE; test: Acid-activated cleavage of E-cad in Ussing-chambered rabbit EE, W-blot for CTF with C-terminal antibody 4A2C7; format: cell-based
[5] = test system: rabbit EE; test: Junctional opening (RT) of EE by exposure to luminal HCl pH 1.6; format: cell-based; conditions: microtubule stabilizer taxol
[6] = test system: esophagitis; conditions: rat model of reflux; cited from earlier work
[7] = test system: esophagitis; conditions: patients with duodeno-esophageal reflux post-gastrectomy; cited from earlier work
[8] = γ-secretase inhibitor 10 μM, acid-exposed EE

For `CC(=O)Nc1ccc(C=Cc2ccc(N=C=S)cc2S(=O)(=O)O)c(S(=O)(=O)O)c1` [SITS, 4-acetoamido-4′-isothiocyanostilbene-2,2′-disulfonic acid], the “cell swelling and necrosis” value ([1]; serosal HCl pH 2.0, serosal pretreatment 4 mM) is listed as “prevented”.

In the case of `COc1cc2c(c(OC)c1OC)-c1ccc(OC)c(=O)cc1[C@@H](NC(C)=O)CC2` [colchicine], the “junctional resealing during the Ca++-switch technique” value ([2]; microtubule destabilizer) is reported as “inhibited”.

In the case of `C=C1[C@@H](C)[C@H]2[C@H](Cc3ccccc3)NC(=O)[C@]23[C@H](OC(C)=O)/C=C/[C@@](C)(O)C(=O)[C@@H](C)C/C=C/[C@H]3[C@@H]1O` [cytochalasin D], the “junctional resealing during the Ca++-switch technique” value ([2]; microfilament destabilizer, 2 uM) is reported as “inhibited”.

For `CCO` [alcohol], the “breaks the barrier (RT as marker of PCP)” value ([3]; at pH 7.4) was “barrier breakers”.

For `C[C@H](NC(=O)Cc1cc(F)cc(F)c1)C(=O)N[C@H](C(=O)OC(C)(C)C)c1ccccc1` [DAPT75, DAPT], the “cleavage of E-cad” value [4, 8] was “did not block cleavage” and the “pattern of E-cad cleavage (CTFs on W-blot)” value [4, 8] was “yielding two CTFs instead of one”.

For `C[C@H](CCC(=O)NCCS(=O)(=O)O)[C@H]1CC[C@H]2[C@@H]3[C@H](O)C[C@@H]4C[C@H](O)CC[C@]4(C)[C@H]3C[C@H](O)[C@]12C` [taurocholic acid], the “breaks the barrier (RT as marker of PCP)” value ([3]; at pH 2) was “barrier breakers”.

With `CC(=O)O[C@H]1C(=O)[C@@]2(C)[C@H]([C@H](OC(=O)c3ccccc3)[C@]3(O)C[C@H](OC(=O)[C@H](O)[C@@H](NC(=O)c4ccccc4)c4ccccc4)C(C)=C1C3(C)C)[C@]1(OC(C)=O)CO[C@@H]1C[C@@H]2O` [taxol] the “junctional opening by Ca++-free soln” value ([2]; microtubule stabilizer, 50 μM) was “inhibited”, the junctional resealing ([2]; taxol, data normalized at the end of junctional opening in Ca++-free solution) was “Inhibition of resealing” and the “junctional opening by exposure to luminal pH 1.6” value [5] was “inhibit junctional opening”.

For `CN(C)C(=O)COC(=O)Cc1ccc(OC(=O)c2ccc(NC(=N)N)cc2)cc1` [camostat mesilate], the esophagitis [6] is given as “reduce esophagitis” and the esophagitis [7] is given as “reduce esophagitis”.

In the case of `O=S(=O)(O)CCN1CCN(CCO)CC1` [HEPES], the “luminal acid-induced increase in PCP (reduction in RT)” value ([1]; serosal HEPES) is given as “without preventing the luminal acid-induced increase in PCP” and the “luminal acid-induced cell necrosis” value ([1]; serosal buffer replacing bathing solution bicarbonate) is given as “prevented”.

For “trypsin: barrier breaker at pH 7.4, can be present within refluxates of near-neutral pH”, the “breaks the barrier (RT as marker of PCP)” value ([3]; at pH 7.4) was “barrier breakers” and the “junctional damage by luminal trypsin (DIS, E-cad cleavage)” value ([3]; luminal exposure) was “results in both DIS (61) and cleavage of E-cad's extracellular domain”.

For `CNC(=O)[C@@H](NC(=O)[C@H](CC(C)C)[C@H](O)C(=O)NO)C(C)(C)C` [Marimastat], the “cleavage of E-cad” value ([4]; Marimastat 10 μM, luminal HCl pH 1.1 for 30 min or serosal HCl pH 2.0 for 5 min) was “blocked; also recorded: abolition”.
